Data as given in patent US12173018B2, “Penicillin-binding protein inhibitors” (priority 2018, dated 2024).
In brackets after ≈: the same amount, converted by molar mass. Where two headings read alike, the source gives them in different places.

Columns and labels:
N. gonorrhoeae WHO F = assay: Liquid broth MIC, N. gonorrhoeae WHO F; assay type: cell-based; settings: Neisseria gonorrhoeae, read-out: Minimum Inhibitory Concentration, N. gonorrhoeae WHO F
Summary of the method: (§1)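 Broth microdilution, 2-fold compound series; start inoculum 5×10^5 CFU/mL (OD600-adjusted, GC broth pH 7.2, Kellogg's suppl.). 40-42 h, 36° C, 5% CO2. MIC = lowest conc., no visible growth.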

E. coli ATCC 25922 = assay: Broth microdilution MIC, E. coli ATCC 25922; assay type: cell-based; settings: Escherichia coli
Summary of the method: (§2)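 Colonies from Mueller Hinton II agar were grown 3-5 hours at 37° C in cation-supplemented broth, adjusted by OD600, then added to 2-fold compound dilutions at 5×10^5 CFU/mL. After 16-20 hours at 37° C, MICs were scored visually.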

E. coli AG100 = assay: Broth microdilution MIC, E. coli AG100 (wild-type parent); assay type: cell-based; settings: Escherichia coli; wild-type parent E. coli AG100, broth microdilution; read-out: MIC E. coli AG100
Summary of the method: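 Starting inoculum of 5×10^5 CFU/mL, from colonies grown 3-5 h in Mueller-Hinton broth with divalent cations, added to two-fold compound dilution series.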

N. gonorrhoeae FA19 = assay: Liquid broth MIC, N. gonorrhoeae FA19; assay type: cell-based; settings: Neisseria gonorrhoeae
Summary of the method: as §1

[1] = system: N. gonorrhoeae ATCC 49226; assay: Liquid broth MIC, N. gonorrhoeae ATCC 49226; assay type: cell-based; settings: Neisseria gonorrhoeae
Summary of the method: as §1

K. pneumoniae 848844 = assay: microbe, parasite or virus in culture; assay type: cell-based, Klebsiella pneumoniae
Summary of the method: as §2

E. coli 901C = assay: microbe, parasite or virus in culture; assay type: cell-based; settings: Escherichia coli, read-out: MIC E. coli 901C
Summary of the method: as §2

E. coli AG100A = assay: microbe, parasite or virus in culture; assay type: cell-based; settings: Escherichia coli, read-out: MIC E. coli AG100A
Summary of the method: as §2

E. coli D22 = assay: microbe, parasite or virus in culture; assay type: cell-based; settings: Escherichia coli
Summary of the method: as §2

K. pneumoniae UMM = assay: microbe, parasite or virus in culture; assay type: cell-based; settings: Klebsiella pneumoniae, read-out: MIC K. pneumoniae UMM
Summary of the method: as §2

K. pneumoniae SI-117 = assay: microbe, parasite or virus in culture; assay type: cell-based; settings: Klebsiella pneumoniae, SI117, read-out: MIC K. pneumoniae SI-117
Summary of the method: as §2

[2] = N. gonorrhoeae WHO F, liquid broth
[3] = ATCC25922, E. coli ATCC 25922, broth microdilution, read-out: MIC E. coli 25922
[4] = N. gonorrhoeae FA19, liquid broth, read-out: Minimum Inhibitory Concentration, N. gonorrhoeae FA19
[5] = ATCC49226, N. gonorrhoeae ATCC 49226, liquid broth, read-out: Minimum Inhibitory Concentration, N. gonorrhoeae ATCC 49226
[6] = Klebsiella pneumoniae, K. pneumoniae 848844 producing SHV-11 and KPC-2, read-out: MIC K. pneumoniae 848844
[7] = hyper-permeable E. coli 901C, broth microdilution
[8] = hyper-permeable E. coli D22, broth microdilution, read-out: MIC E. coli D22
[9] = K. pneumoniae UMM producing SHV-5 and KPC-2

| SMILES | MIC (N. gonorrhoeae WHO F; [2]) [µg/mL] | MIC (E. coli ATCC 25922; [3]) [µg/mL] | MIC (E. coli AG100) [µg/mL] | MIC (N. gonorrhoeae FA19; [4]) [µg/mL] | MIC [1, 5] [µg/mL] | MIC (K. pneumoniae 848844; [6]) [µg/mL] | MIC (E. coli 901C; [7]) [µg/mL] | MIC (E. coli AG100A) [µg/mL] | MIC (E. coli D22; [8]) [µg/mL] | MIC (K. pneumoniae UMM; [9]) [µg/mL] | MIC (K. pneumoniae SI-117) [µg/mL] | MIC (N. gonorrhoeae WHO F) [µg/mL] | MIC (E. coli ATCC 25922; ATCC25922, read-out: MIC E. coli 25922) [µg/mL] | MIC (N. gonorrhoeae FA19; FA19, read-out: Minimum Inhibitory Concentration, N. gonorrhoeae FA19) [µg/mL] | MIC ([1]; ATCC49226, read-out: Minimum Inhibitory Concentration, N. gonorrhoeae ATCC 49226) [µg/mL] | MIC (K. pneumoniae 848844; Klebsiella pneumoniae, 848844, read-out: MIC K. pneumoniae 848844) [µg/mL] | MIC (E. coli 901C; 901C) [µg/mL] | MIC (E. coli D22; D22, read-out: MIC E. coli D22) [µg/mL] | MIC (K. pneumoniae UMM) [µg/mL] |
| --- | --- | --- | --- | --- | --- | --- | --- | --- | --- | --- | --- | --- | --- | --- | --- | --- | --- | --- | --- |
| CS(=O)(=O)NCCN1CCN(C(=O)NC(C(=O)N[C@H]2Cc3cccc(C(=O)O)c3OB2O)c2ccc(O)c(O)c2Cl)C(=O)C1=O (stereo partly drawn) [Example 229, (3R)-3-(2-(2-chloro-3,4-dihydroxyphenyl)-2-(4-(2-(methylsulfonamido)ethyl)-2,3-dioxopiperazine-1-carboxamido)acetamido)-2-hydroxy-3,4-dihydro-2H-benzo[e][1,2]oxaborinine-8-carboxylic acid] | 4 to 8 (≈ 5.99 to 12 µM) | 8 to 16 | 2 to 4 | > 64 | > 64 | 2 to 4 | 0.5 to 1 | 0.5 to 1 | 2 to 4 | 8 to 16 | 8 to 16 |  |  |  |  |  |  |  |  |
| NCCN1CCN(C(=O)N[C@@H](C(=O)N[C@H]2Cc3ccc(F)c(C(=O)O)c3OB2O)c2ncc(O)cc2F)C(=O)C1=O [Example 230, (R)-3-((R)-2-(4-(2-aminoethyl)-2,3-dioxopiperazine-1-carboxamido)-2-(3-fluoro-5-hydroxypyridin-2-yl)acetamido)-7-fluoro-2-hydroxy-3,4-dihydro-2H-benzo[e][1,2]oxaborinine-8-carboxylic acid] | 0.25 to 0.5 (≈ 0.434 to 0.868 µM) | 8 to 16 | 8 to 16 | 4 to 8 (≈ 6.94 to 13.9 µM) | 4 to 8 (≈ 6.94 to 13.9 µM) | 32 to 64 | 0.5 to 1 | 2 to 4 | 2 to 4 | 8 to 16 | 8 to 16 |  |  |  |  |  |  |  |  |
| NCCCN1CCN(C(=O)NC(C(=O)N[C@H]2Cc3cccc(C(=O)O)c3OB2O)c2ccc(O)c(O)c2Cl)C(=O)C1=O (stereo partly drawn) [Example 233, (3R)-3-(2-(4-(3-aminopropyl)-2,3-dioxopiperazine-1-carboxamido)-2-(2-chloro-3,4-dihydroxyphenyl)acetamido)-2-hydroxy-3,4-dihydro-2H-benzo[e][1,2]oxaborinine-8-carboxylic acid] | 4 to 8 (≈ 6.62 to 13.2 µM) | 8 to 16 | 0.5 to 1 | 16 to 32 (≈ 26.5 to 53 µM) | > 64 | 2 to 4 | 0.5 to 1 | 0.5 to 1 | 0.5 to 1 | 2 to 4 | 2 to 4 |  |  |  |  |  |  |  |  |
| CCN1C[C@H](CO)N(C(=O)NC(C(=O)N[C@H]2Cc3cccc(C(=O)O)c3OB2O)c2ncc(O)cc2F)C(=O)C1=O (stereo partly drawn) [Example 234, (3R)-3-(2-((R)-4-ethyl-6-(hydroxymethyl)-2,3-dioxopiperazine-1-carboxamido)-2-(3-fluoro-5-hydroxypyridin-2-yl)acetamido)-2-hydroxy-3,4-dihydro-2H-benzo[e][1,2]oxaborinine-8-carboxylic acid] |  |  | > 128 |  |  | > 128 | 2 to 4 | 8 to 16 | 8 to 16 | 32 to 64 | > 128 | 0.25 to 0.5 (≈ 0.436 to 0.872 µM) | > 128 | 16 to 32 (≈ 27.9 to 55.8 µM) | 16 to 32 (≈ 27.9 to 55.8 µM) |  |  |  |  |
| CCNC(=O)NCCN1CCN(C(=O)NC(C(=O)N[C@H]2Cc3cccc(C(=O)O)c3OB2O)c2ccc(O)c(O)c2Cl)C(=O)C1=O (stereo partly drawn) [Example 235, (3R)-3-(2-(2-chloro-3,4-dihydroxyphenyl)-2-(4-(2-(3-ethylureido)ethyl)-2,3-dioxopiperazine-1-carboxamido)acetamido)-2-hydroxy-3,4-dihydro-2H-benzo[e][1,2]oxaborinine-8-carboxylic acid] | 1 to 2 (≈ 1.51 to 3.03 µM) | 32 to 64 | 8 to 16 | > 64 | > 64 | 2 to 4 | 2 to 4 | 2 to 4 | 2 to 4 | 2 to 4 | 8 to 16 |  |  |  |  |  |  |  |  |
| NCCCN1CCN(C(=O)N[C@@H](C(=O)N[C@H]2Cc3ccc(F)c(C(=O)O)c3OB2O)c2ccc(O)c(O)c2Cl)C(=O)C1=O [Example 236, (R)-3-((R)-2-(4-(3-aminopropyl)-2,3-dioxopiperazine-1-carboxamido)-2-(2-chloro-3,4-dihydroxyphenyl)acetamido)-7-fluoro-2-hydroxy-3,4-dihydro-2H-benzo[e][1,2]oxaborinine-8-carboxylic acid] | 1 to 2 (≈ 1.61 to 3.22 µM) | 0.5 to 1 | 0.5 to 1 | 4 to 8 (≈ 6.43 to 12.9 µM) | 16 to 32 (≈ 25.7 to 51.5 µM) | 0.5 to 1 | 0.5 to 1 | 0.5 to 1 | 0.5 to 1 | 0.5 to 1 | 0.5 to 1 |  |  |  |  |  |  |  |  |
| CCN1C[C@H](CO)N(C(=O)NC(C(=O)N[C@H]2Cc3ccc(F)c(C(=O)O)c3OB2O)c2ccc(O)c(O)c2Cl)C(=O)C1=O (stereo partly drawn) [Example 237, (3R)-3-(2-(2-chloro-3,4-dihydroxyphenyl)-2-((R)-4-ethyl-6-(hydroxymethyl)-2,3-dioxopiperazine-1-carboxamido)acetamido)-7-fluoro-2-hydroxy-3,4-dihydro-2H-benzo[e][1,2]oxaborinine-8-carboxylic acid] | 0.25 to 0.5 (≈ 0.401 to 0.803 µM) | 2 to 4 | 0.5 to 1 | 4 to 8 (≈ 6.42 to 12.8 µM) | 4 to 8 (≈ 6.42 to 12.8 µM) | 2 to 4 | < 0.25 | < 0.25 | < 0.25 | 2 to 4 | 2 to 4 |  |  |  |  |  |  |  |  |
| CCN1C[C@H](CCN)N(C(=O)NC(C(=O)N[C@H]2Cc3ccc(F)c(C(=O)O)c3OB2O)c2ccc(O)c(O)c2Cl)C(=O)C1=O (stereo partly drawn) [Example 238, (3R)-3-(2-((S)-6-(2-aminoethyl)-4-ethyl-2,3-dioxopiperazine-1-carboxamido)-2-(2-chloro-3,4-dihydroxyphenyl)acetamido)-7-fluoro-2-hydroxy-3,4-dihydro-2H-benzo[e][1,2]oxaborinine-8-carboxylic acid] | 4 to 8 (≈ 6.29 to 12.6 µM) | 32 to 64 | 2 to 4 | > 64 | > 64 |  |  | 2 to 4 |  |  | 8 to 16 |  |  |  |  | 8 to 16 | 2 to 4 | 8 to 16 | 8 to 16 |
| CNCCN1CCN(C(=O)NC(C(=O)N[C@H]2Cc3cccc(C(=O)O)c3OB2O)c2ccc(O)c(O)c2Cl)C(=O)C1=O (stereo partly drawn) [Example 239, (3R)-3-(2-(2-chloro-3,4-dihydroxyphenyl)-2-(4-(2-(methylamino)ethyl)-2,3-dioxopiperazine-1-carboxamido)acetamido)-2-hydroxy-3,4-dihydro-2H-benzo[e][1,2]oxaborinine-8-carboxylic acid] | 4 to 8 (≈ 6.62 to 13.2 µM) | 32 to 64 | 2 to 4 | > 64 | > 64 | 2 to 4 | 2 to 4 | 2 to 4 | 2 to 4 | 2 to 4 | > 128 |  |  |  |  |  |  |  |  |
